Reference: ChEMBL document CHEMBL4152326 (2018)
Active and inactive are the calls of the source. No cut-off for these calls is given here.

Tests used:
[1] = tested on: Stenotrophomonas maltophilia; assay: Antimicrobial activity against L-1 producing Stenotrophomonas maltophilia SR21970 in presence of human apo-transferrin by broth microdilution method; type: functional
[2] = tested on: Pseudomonas aeruginosa; assay: Antimicrobial activity against Pseudomonas aeruginosa 27060deltaR1 harboring deletion of R1 plasmid in presence of human apo-transferrin by broth microdilution method; type: functional
[3] = tested on: Acinetobacter baumannii; assay: Antimicrobial activity against OXA-23/OXA-58 producing Acinetobacter baumannii SR27323 in presence of human apo-transferrin by broth microdilution method; type: functional
[4] = tested on: Pseudomonas aeruginosa; assay: Antibacterial activity against Pseudomonas aeruginosa SR27001 infected in Jcl:ICR mouse systemic infection model assessed as increase in mouse survival rate administered iv 1 to 5 hrs post infection measured over 7 days; type: functional
[5] = tested on: Escherichia coli; assay: Antimicrobial activity against SHV-4 producing Escherichia coli ATCC BAA-200 in presence of human apo-transferrin by broth microdilution method; type: functional
[6] = tested on: Pseudomonas aeruginosa; assay: Antimicrobial activity against VIM-2 producing Pseudomonas aeruginosa SBRKM-28 in presence of human apo-transferrin by broth microdilution method; type: functional
[7] = tested on: Pseudomonas aeruginosa; assay: Antimicrobial activity against Pseudomonas aeruginosa SR24 in presence of human apo-transferrin by broth microdilution method; type: functional
[8] = tested on: Pseudomonas aeruginosa; assay: Antimicrobial activity against AmpC overproducing Pseudomonas aeruginosa SR24-12 in presence of human apo-transferrin by broth microdilution method; type: functional
[9] = tested on: Pseudomonas aeruginosa; assay: Antimicrobial activity against IMP-1 producing Pseudomonas aeruginosa SR27001 in presence of human apo-transferrin by broth microdilution method; type: functional
[10] = tested on: Pseudomonas aeruginosa; assay: Antimicrobial activity against IMP-1 producing Pseudomonas aeruginosa SR27060 in presence of human apo-transferrin by broth microdilution method; type: functional
[11] = tested on: Klebsiella pneumoniae; assay: Antimicrobial activity against KPC-2 producing Klebsiella pneumoniae ATCC BAA-1705 in presence of human apo-transferrin by broth microdilution method; type: functional
[12] = Iron chelating activity in presence of cetyltrimethylammonium bromide at pH 5.5 by chromeazurol B dye based spectrophotometric method

Row | Structure (SMILES) | MIC [1] [µg/mL] | MIC [2] [µg/mL] | MIC [3] [µg/mL] | ED50 [4] [mg/kg] | MIC [5] [µg/mL] | MIC [6] [µg/mL] | MIC [7] [µg/mL] | MIC [8] [µg/mL] | MIC [9] [µg/mL] | MIC [10] [µg/mL] | MIC [11] [µg/mL] | Activity [12]
1 | C[C@@H](O/N=C(\C(=O)N[C@@H]1C(=O)N2C(C(=O)[O-])=C(C[N+]3(CCNC(=O)c4ccc(O)c(O)c4Cl)CCCC3)CS[C@H]12)c1csc(N)n1)C(=O)O | 0.5 | 1 | 1 | 5.48 | 1 | 0.125 | 0.25 | 0.5 | 1 | 2 | 0.063 | –
2 | CC(C)(O/N=C(\C(=O)N[C@@H]1C(=O)N2C(C(=O)[O-])=C(C[N+]3(CCNC(=O)c4cccc(O)c4O)CCCC3)CS[C@H]12)c1csc(N)n1)C(=O)O | 1 | 0.5 | 1 | – | 2 | – | 0.063 | 0.25 | 4 | 8 | 0.063 | Active
3 | CC(C)(O/N=C(\C(=O)N[C@@H]1C(=O)N2C(C(=O)[O-])=C(C[N+]3(CCNC(=O)c4ccc(O)c(O)c4)CCCC3)CS[C@H]12)c1csc(N)n1)C(=O)O | 2 | 2 | 16 | – | 2 | 0.25 | 0.125 | 1 | 2 | 2 | 0.5 | Active
4 | CC(C)(O/N=C(\C(=O)N[C@@H]1C(=O)N2C(C(=O)[O-])=C(C[N+]34CCC(CNC(=O)c5ccc(O)c(O)c5Cl)(CC3)CC4)CS[C@H]12)c1csc(N)n1)C(=O)O | 0.25 | 1 | 1 | 9.42 | 2 | 0.125 | 0.25 | 0.5 | 2 | 4 | 0.063 | –
5 | CC(C)(O/N=C(\C(=O)N[C@@H]1C(=O)N2C(C(=O)[O-])=C(C[N+](C)(C)[C@@H]3CCN(C(=O)c4ccc(O)c(O)c4Cl)C3)CS[C@H]12)c1csc(N)n1)C(=O)O | 1 | 1 | 1 | 5.48 | 2 | 0.25 | 0.25 | 0.5 | 2 | 2 | 0.25 | –
6 | CC(C)(O/N=C(\C(=O)N[C@@H]1C(=O)N2C(C(=O)[O-])=C(C[N+]3(CCNC(=O)c4ccc(O)c(O)c4O)CCCC3)CS[C@H]12)c1csc(N)n1)C(=O)O | 8 | 4 | 32 | – | 32 | – | 1 | 2 | 32 | 16 | 1 | Active
7 | CO/N=C(\C(=O)N[C@@H]1C(=O)N2C(C(=O)[O-])=C(C[N+]3(C)CCCC3)CS[C@H]12)c1csc(N)n1 | 64 | 16 | 16 | > 100 | 4 | 16 | 0.5 | 16 | > 64 | > 64 | 32 | –
8 | CC(C)(O/N=C(\C(=O)N[C@@H]1C(=O)N2C(C(=O)[O-])=C(C[N+]3(CCNC(=O)c4cc(=O)c(O)cn4O)CCCC3)CS[C@H]12)c1csc(N)n1)C(=O)O | 0.125 | 1 | 0.5 | > 30 | 1 | 0.063 | 0.125 | 0.5 | 4 | 4 | 0.063 | –
9 | CC(C)(O/N=C(\C(=O)N[C@@H]1C(=O)N2C(C(=O)[O-])=C(C[N+]3(CCNC(=O)c4ccc(O)c(O)c4F)CCCC3)CS[C@H]12)c1csc(N)n1)C(=O)O | 0.25 | 1 | 0.5 | 5.48 | 0.5 | – | 0.125 | 0.125 | 2 | 1 | ≤ 0.031 | –
10 | CC(C)(O/N=C(\C(=O)N[C@@H]1C(=O)N2C(C(=O)[O-])=C(C[N+]3(CCNC(=O)c4cc(Cl)c(O)c(O)c4Cl)CCCC3)CS[C@H]12)c1csc(N)n1)C(=O)O | 0.125 | 0.5 | 0.25 | – | 0.5 | 0.063 | 0.125 | 0.25 | 0.5 | 2 | 0.031 | Active
11 | CC(C)(O/N=C(\C(=O)N[C@@H]1C(=O)N2C(C(=O)[O-])=C(C[N+]3(CCNC(=O)c4ccc(O)c(O)c4Cl)CCCC3)CS[C@H]12)c1csc(N)n1)C(=O)O [CEFIDEROCOL] | – | 1 | 1 | 5.48 | 1 | – | 0.25 | 0.5 | 1 | 2 | 0.063 | Active
12 | Nc1nc(/C(=N/OCC(=O)O)C(=O)N[C@@H]2C(=O)N3C(C(=O)[O-])=C(C[N+]4(CCNC(=O)c5ccc(O)c(O)c5Cl)CCCC4)CS[C@H]23)cs1 | 1 | 2 | 0.5 | 9.84 | 32 | 0.125 | 0.125 | 0.5 | 2 | 4 | 0.25 | –
13 | CC(C)(O/N=C(\C(=O)N[C@@H]1C(=O)N2C(C(=O)[O-])=C(C[N+]3(CCNC(=O)c4cc(=O)c(O)c[nH]4)CCCC3)CS[C@H]12)c1csc(N)n1)C(=O)O | 0.25 | 1 | 1 | 10.2 | 1 | 0.25 | 0.25 | 0.25 | 4 | 4 | 0.063 | Active
14 | Cc1c(C(=O)NCC[N+]2(CC3=C(C(=O)[O-])N4C(=O)[C@@H](NC(=O)/C(=N\OC(C)(C)C(=O)O)c5csc(N)n5)[C@H]4SC3)CCCC2)ccc(O)c1O | 1 | 2 | 8 | – | 8 | – | 0.5 | 1 | 8 | 8 | 0.25 | Active
15 | CC(C)(O/N=C(\C(=O)N[C@@H]1C(=O)N2C(C(=O)[O-])=C(C[N@+]3(C)[C@@H]4CC[C@H]3C[C@@H](NC(=O)c3ccc(O)c(O)c3Cl)C4)CS[C@H]12)c1csc(N)n1)C(=O)O | 1 | 0.5 | 1 | 10.5 | 2 | 0.063 | 0.25 | 0.5 | 0.5 | 1 | 0.063 | –
